From patent US11414424B2, “Cardiac sarcomere inhibitors” (Cytokinetics, Inc., priority 2018, dated 2022)

test system: bovine cardiac myofibrils; experiment: Myofibril assay: PK/LDH-coupled steady-state ATPase activity of skinned bovine cardiac myofibrils; type: biochemical; conditions: Ca2+ activating to 75% of maximal rate
Method in brief: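 Steady-state ATPase of detergent-skinned bovine left-ventricular myofibrils (1 mg/mL), PK/LDH-coupled NADH read at 340 nm, in PIPES/MgCl2 buffer pH 6.8 with 50 μM ATP, 0.6 mM EGTA and CaCl2 set for 50% or 75% activation. Inhibition of activity measured.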

| Compound | CDMF75 IC15 [µM] |
| --- | --- |
| CC(C)N1CC(=O)N(Cc2ccc(Cl)cc2)C2(CCN(c3ccccc3)C2)C1=O (centres unmarked) [Compound 127, 6-(4-chlorobenzyl)-9-isopropyl-2-phenyl-2,6,9-triazaspiro[4.5]decane-7,10-dione] | 0.8 |
| CC(C)N1CC(=O)N(Cc2ccc(Cl)cc2)C2(CCN(c3ccccn3)C2)C1=O (centres unmarked) [Compound 128, 6-(4-chlorobenzyl)-9-isopropyl-2-(pyridin-2-yl)-2,6,9-triazaspiro[4.5]decane-7,10-dione] | 0.8 |
| Cc1cc(N2CCC3(C2)C(=O)N(C(C)C)CC(=O)N3Cc2ccc(Cl)cc2)ccn1 (centres unmarked) [Compound 129, 6-(4-chlorobenzyl)-9-isopropyl-2-(2-methyl-pyridin-4-yl)-2,6,9-triazaspiro-[4.5]decane-7,10-dione] | 4.6 |
| CC(C)N1CC(=O)N(C(C)c2ccc(C(F)(F)F)cc2)C2(CN(c3ccccn3)C2)C1=O (centres unmarked) [Compound 138, 8-isopropyl-2-(pyridin-2-yl)-5-(1-(4-(trifluoromethyl)-phenyl)ethyl)-2,5,8-triazaspiro[3.5]nonane-6,9-dione] | 7.0 |
| CC(C)N1CC(=O)N(C(C)c2ccc(C(F)(F)F)cc2)C2(CN(c3ccccc3)C2)C1=O (centres unmarked) [Compound 140, 8-isopropyl-2-phenyl-5-(1-(4-(trifluoromethyl)phenyl)-ethyl)-2,5,8-triazaspiro-[3.5]nonane-6,9-dione] | 4.4 |
| CC(C)N1CC(=O)N([C@H](C)c2ccc(C(F)(F)F)cc2)C2(CN(c3ccccc3)C2)C1=O [Compound 141, (R)-8-isopropyl-2-phenyl-5-(1-(4-(trifluoromethyl)-phenyl)ethyl)-2,5,8-triazaspiro[3.5]nonane-6,9-dione] | 10.7 |
| CC(C)N1CC(=O)N([C@@H](C)c2ccc(C(F)(F)F)cc2)C2(CN(c3ccccc3)C2)C1=O [Compound 142, (S)-8-isopropyl-2-phenyl-5-(1-(4-(trifluoromethyl)phenyl)ethyl)-2,5,8-triazaspiro[3.5]nonane-6,9-dione] | 0.8 |
| CNC(=O)N1CC2(C1)C(=O)N(c1ccc(OC)cc1)CC(=O)N2Cc1ccc(C(F)(F)F)cc1 [Compound 145, 8-(4-methoxyphenyl)-N-methyl-6,9-dioxo-5-(4-(trifluoromethyl)benzyl)-2,5,8-triazaspiro[3.5]-nonane-2-carboxamide] | 3.8 |
| CNC(=O)N1CC2(C1)C(=O)N(c1ccc(C#N)cc1)CC(=O)N2Cc1ccc(C(F)(F)F)cc1 [Compound 146, 8-(4-cyanophenyl)-N-methyl-6,9-dioxo-5-(4-(trifluoromethyl)benzyl)-2,5,8-triazaspiro[3.5]-nonane-2-carboxamide] | 1.2 |
| CNC(=O)N1CC2(C1)C(=O)N(c1ccc(C#N)nc1)CC(=O)N2Cc1ccc(C(F)(F)F)cc1 [Compound 147, 8-(6-cyanopyridin-3-yl)-N-methyl-6,9-dioxo-5-(4-(trifluoromethyl)benzyl)-2,5,8-triazaspiro[3.5]-nonane-2-carboxamide] | 8.1 |
| CNC(=O)N1CC2(C1)C(=O)N(c1ccc(C(=O)OC)cc1)CC(=O)N2Cc1ccc(C(F)(F)F)cc1 [Compound 148, methyl 4-(2-(methylcarbamoyl)-6,9-dioxo-5-(4-(trifluoro-methyl)benzyl)-2,5,8-triazaspiro[3.5]nonan-8-yl)benzoate] | 2.3 |
| CNC(=O)N1CC2(C1)C(=O)N(c1ccc(F)cc1)CC(=O)N2Cc1ccc(C(F)(F)F)cc1 [Compound 149, 8-(4-fluorophenyl)-N-methyl-6,9-dioxo-5-(4-(trifluoromethyl)benzyl)-2,5,8-triazaspiro[3.5]-nonane-2-carboxamide] | 8.9 |
| CNC(=O)N1CC2(C1)C(=O)N(c1ccc(C(F)(F)F)cc1)CC(=O)N2Cc1ccc(C(F)(F)F)cc1 [Compound 151, N-methyl-6,9-dioxo-5-(4-(trifluoromethyl)benzyl)-8-(4-(trifluoromethyl)phenyl)-2,5,8-triazaspiro[3.5]nonane-2-carboxamide] | 12.2 |
| CNC(=O)N1CC2(C1)C(=O)N(c1ccc(OC)nc1)CC(=O)N2Cc1ccc(C(F)(F)F)cc1 [Compound 154, 8-(6-methoxypyridin-3-yl)-N-methyl-6,9-dioxo-5-(4-(trifluoromethyl)benzyl)-2,5,8-triazaspiro[3.5]-nonane-2-carboxamide] | 19.8 |

The remaining lines, values ahead:

| CDMF75 IC15 [µM] | Compound |
| --- | --- |
| 34.4 | COC(=O)N1CCC2(C1)C(=O)N(C(C)C)CC(=O)N2Cc1ccc(C(F)(F)F)cc1 (centres unmarked) [Compound 110, methyl 9-isopropyl-7,10-dioxo-6-(4-(trifluoro-methyl)benzyl)-2,6,9-triazaspiro[4.5]decane-2-carboxylate] |
| 19.8 | CC(C)N1CC(=O)N(Cc2ccc(C(F)(F)F)cc2)C2(CCN(C(=O)Nc3ccncc3)C2)C1=O (centres unmarked) [Compound 111, 9-isopropyl-7,10-dioxo-N-(pyridin-4-yl)-6-(4-(trifluoromethyl)benzyl)-2,6,9-triazaspiro[4.5]-decane-2-carboxamide] |
| 33.0 | CC(C)N1CC(=O)N(Cc2ccc(C(F)(F)F)cc2)C2(CCN(C(=O)NC(C)(C)C)C2)C1=O (centres unmarked) [Compound 112, N-(tert-butyl)-9-isopropyl-7,10-dioxo-6-(4-(trifluoromethyl)benzyl)-2,6,9-triazaspiro[4.5]-decane-2-carboxamide] |
| 18.5 | CC(C)N1CC(=O)N(Cc2ccc(C(F)(F)F)cc2)C2(CCN(C(=O)Nc3cccnc3)C2)C1=O (centres unmarked) [Compound 113, 9-isopropyl-7,10-dioxo-N-(pyridin-3-yl)-6-(4-(trifluoromethyl)benzyl)-2,6,9-triazaspiro[4.5]-decane-2-carboxamide] |
| 7.9 | CC(C)N1CC(=O)N(Cc2ccc(C(F)(F)F)cc2)C2(CCN(C(=O)Nc3cnn(C)c3)C2)C1=O (centres unmarked) [Compound 114, 9-isopropyl-N-(1-methyl-1H-pyrazol-4-yl)-7,10-dioxo-6-(4-(trifluoromethyl)benzyl)-2,6,9-triazaspiro[4.5]decane-2-carboxamide] |
| 10.2 | CC(C)N1CC(=O)N(Cc2ccc(C(F)(F)F)cc2)C2(CCN(C(=O)Nc3ccc(F)cc3)C2)C1=O (centres unmarked) [Compound 115, N-(4-fluorophenyl)-9-isopropyl-7,10-dioxo-6-(4-(trifluoromethyl)benzyl)-2,6,9-triazaspiro[4.5]decane-2-carboxamide] |
| 7.2 | CCNC(=O)N1CCC2(C1)C(=O)N(C(C)C)CC(=O)N2Cc1ccc(C(F)(F)F)cc1 (centres unmarked) [Compound 116, N-ethyl-9-isopropyl-7,10-dioxo-6-(4-(trifluoromethyl)benzyl)-2,6,9-triazaspiro[4.5] decane-2-carboxamide] |
| 16.6 | CC(C)NC(=O)N1CCC2(C1)C(=O)N(C(C)C)CC(=O)N2Cc1ccc(C(F)(F)F)cc1 (centres unmarked) [Compound 117, N,9-diisopropyl-7,10-dioxo-6-(4-(trifluoromethyl)benzyl)-2,6,9-triazaspiro[4.5]decane-2-carboxamide] |
| 14.0 | CC(C)N1CC(=O)N(Cc2ccc(C(F)(F)F)cc2)C2(CCN(C(=O)NC3CC3)C2)C1=O (centres unmarked) [Compound 118, N-cyclopropyl-9-isopropyl-7,10-dioxo-6-(4-(trifluoromethyl)benzyl)-2,6,9-triazaspiro[4.5]decane-2-carboxamide] |
| 10.8 | CCNC(=O)N1CCC2(C1)C(=O)N(C(C)C)CC(=O)N2Cc1ccc(Cl)cc1 (centres unmarked) [Compound 119, 6-(4-chlorobenzyl)-N-ethyl-9-isopropyl-7,10-dioxo-2,6,9-triazaspiro[4.5]-decane-2-carboxamide] |
| 18.3 | CC(C)N1CC(=O)N(Cc2ccc(Cl)cc2)C2(CCN(C(N)=O)C2)C1=O (centres unmarked) [Compound 120, 6-(4-chlorobenzyl)-9-isopropyl-7,10-dioxo-2,6,9-triazaspiro[4.5]decane-2-carboxamide] |
| 9.9 | CNC(=O)N1CCC2(C1)C(=O)N(C(C)C)CC(=O)N2Cc1ccc(Cl)cc1 (centres unmarked) [Compound 121, 6-(4-chlorobenzyl)-9-isopropyl-N-methyl-7,10-dioxo-2,6,9-triazaspiro[4.5]-decane-2-carboxamide] |
| 20.5 | CC(C)N1CC(=O)N(Cc2ccc(Cl)cc2)C2(CCN(C(=O)NC3CC3)C2)C1=O (centres unmarked) [Compound 122, 6-(4-chlorobenzyl)-N-cyclopropyl-9-isopropyl-7,10-dioxo-2,6,9-triazaspiro[4.5]decane-2-carboxamide] |
| 11.2 | CC(C)N1CC(=O)N(Cc2ccc(Cl)cc2)C2(CCN(C(=O)Nc3ccccc3)C2)C1=O (centres unmarked) [Compound 123, 6-(4-chlorobenzyl)-9-isopropyl-7,10-dioxo-N-phenyl-2,6,9-triazaspiro-[4.5]decane-2-carboxamide] |
| 14.8 | CNC(=O)N1CC2(C1)C(=O)N(C(C)C)CC(=O)N2C(C)c1ccc(C(F)(F)F)cc1 (centres unmarked) [Compound 139, 8-isopropyl-N-methyl-6,9-dioxo-5-(1-(4-(trifluoromethyl)phenyl)-ethyl)-2,5,8-triazaspiro-[3.5]nonane-2-carboxamide] |
| 2.8 | CNC(=O)N1CC2(C1)C(=O)N(c1ccc(F)c(F)c1)CC(=O)N2Cc1ccc(C(F)(F)F)cc1 [Compound 152, 8-(3,4-difluorophenyl)-N-methyl-6,9-dioxo-5-(4-(trifluoromethyl)benzyl)-2,5,8-triazaspiro[3.5]nonane-2-carboxamide] |
| 6.4 | CNC(=O)N1CC2(C1)C(=O)N(c1ccc(C)cc1)CC(=O)N2Cc1ccc(C(F)(F)F)cc1 [Compound 153, N-methyl-6,9-dioxo-8-(p-tolyl)-5-(4-(trifluoromethyl)benzyl)-2,5,8-triazaspiro[3.5]-nonane-2-carboxamide] |
| 0.6 | CNC(=O)N1CC2(C1)C(=O)N(c1ccc(Cl)c(F)c1)CC(=O)N2Cc1ccc(C(F)(F)F)cc1 [Compound 155, 8-(4-chloro-3-fluorophenyl)-N-methyl-6,9-dioxo-5-(4-(trifluoromethyl)benzyl)-2,5,8-triazaspiro[3.5]-nonane-2-carboxamide] |
